Results taken from US20230391772A1, “METHODS AND COMPOSITIONS FOR TARGETED PROTEIN DEGRADATION” (Ranok Therapeutics (Hangzhou) Co. Ltd., priority 2020, published 2023).

Assays:
KRAS(G12C) [1] = target: T1, KRAS(G12C) (Homo sapiens, UniProt P01116, G12C); test: KRAS(G12C) Western blot protein degradation assay in LU65A cells; format: cell-based; design: LU65A human lung cancer cell line, which expresses KRAS(G12C); host or cells: LU65A; settings: 6 hr
Method in brief: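 Cells treated with compound at various concentrations at 37 °C for 48 hr (MIA PaCa-2) or 6 hr (LU65A), then lysed in RIPA. Protein-normalized lysates immunoblotted for KRAS with β-actin, fluorescence quantified; DC50 is the concentration giving 50% of maximal KRAS degradation.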

HSP90a protein = target: T2, HSP90a protein (Homo sapiens, UniProt P07900); test: HSP90α-binding fluorescent polarization (FP) assay, BODIPY-labeled RNK04010 probe; settings: FP competition with RNK04010 (BODIPY-labeled), 5 nM, 300 min at 25° C.
T2 construct: purchased BPS Bioscience 50298
Method in brief: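 Polarization signal was read after equilibration at 25° C, for 120 min with FITC-geldanamycin or 300 min with the BODIPY-tagged RNK04010 probe, each at 5 nM final. Compounds spanned 20 μM down to 5.2 nM in 2.5-fold dilutions against the HSP90a N-terminal domain.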

[2] = system: MIA PaCa-2 human pancreatic carcinoma; test: MIA PaCa-2 CCK-8 proliferation assay; format: cell-based; settings: Homo sapiens, MIA PaCa-2, 72 h, MIA PaCa-2 cells
Method in brief: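 Compounds were tested as a 3-fold series from 20 μM down to 1.02 nM in CCK-8 absorbance assays. The lines used were NCI-H23 and NCI-H358, each with 1 KRAS(G12C) copy, and MIA PaCa-2 with 2 copies. Inhibition was derived relative to DMSO controls, with a no-cell blank subtracted.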

KRAS(G12C) [3] = target: T1, KRAS(G12C); test: KRAS(G12C)/SOS1 homogeneous time-resolved fluorescence (HTRF) assay; design: purchased Cisbio 63ADK000CB16PEG; settings: absence of GTP, 4° C. for 3 hr, read-out: KRAS (G12C) binding
Method in brief: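 HTRF kit measuring compound-induced block of KRAS(G12C)-SOS1 interaction without GTP. Compounds tested as 3-fold serial dilutions down to 1.02 nM, incubated with reaction components 3 h at 4 °C in sealed plates before fluorescence read.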

T1 sequence (P01116 1-188 isoform P01116-2 G12C): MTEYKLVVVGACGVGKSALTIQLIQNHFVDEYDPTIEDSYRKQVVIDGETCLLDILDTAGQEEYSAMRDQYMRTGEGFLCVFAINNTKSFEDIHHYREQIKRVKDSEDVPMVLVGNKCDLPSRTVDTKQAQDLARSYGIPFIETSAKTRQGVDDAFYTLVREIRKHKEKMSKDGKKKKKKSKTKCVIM

Question: What does the source list for C=CC(=O)N1CCN(c2nc(OC[C@@H]3CC[C@H](CN4CCN(Cc5ccc(-n6c(O)nnc6-c6cc(C)c(O)cc6O)cc5)CC4)N3C)nc3c2CCN(c2cccc4cccc(Cl)c24)C3)C[C@@H]1CC#N [Compound 227, 2-[(2S)-4-[7-(8-chloronaphthalen-1-yl)-2-{[(2S,5R)-5-{[4-({4-[3-(2,4-dihydroxy-5-methylphenyl)-5-hydroxy-1,2,4-triazol-4-yl]phenyl}methyl)piperazin-1-yl]methyl}-1-methylpyrrolidin-2-yl]methoxy}-5H,6H,8H-pyrido[3,4-d]pyrimidin-4-yl]-1-(prop-2-enoyl)piperazin-2-yl]acetonitrile]?
Answer: DC50 (KRAS(G12C) [1]): > 1 µM; IC50 (HSP90a protein): < 0.1 µM; EC50 [2]: 0.1 to 1 µM; IC50 (KRAS(G12C) [3]): < 0.1 µM

Question: For C=CC(=O)N1CCN(c2nc(OC[C@@H]3C[C@H](C(=O)NCCc4ccc(CN5CCC(Cc6ccc(-n7c(C(=O)NCC(F)(F)F)nnc7-c7cc(C(C)C)c(O)cc7O)cc6)CC5)cc4)CN3C)nc3c2CCN(c2cccc4cccc(Cl)c24)C3)C[C@@H]1CC#N [Compound 346, 4-{4-[(1-{[4-(2-{[(3S,5S)-5-({[7-(8-chloronaphthalen-1-yl)-4-[(3S)-3-(cyanomethyl)-4-(prop-2-enoyl)piperazin-1-yl]-5H,6H,8H-pyrido[3,4-d]pyrimidin-2-yl]oxy}methyl)-1-methylpyrrolidin-3-yl]formamido}ethyl)phenyl]methyl}piperidin-4-yl)methyl]phenyl}-5-(2,4-dihydroxy-5-isopropylphenyl)-N-(2,2,2-trifluoroethyl)-1,2,4-triazole-3-carboxamide], which DC50 (KRAS(G12C) [1]) is on record?
Answer: Its DC50 is 0.1 to 1 µM.

Question: And the IC50 (HSP90a protein)?
Answer: Its IC50 is under 0.1 µM.

Question: What about the EC50 [2] of the same molecule?
Answer: The EC50 was 0.1 to 1 µM.

Question: What about the IC50 (KRAS(G12C) [3]) of the same molecule?
Answer: Its IC50 is under 0.1 µM.

Question: Which DC50 (KRAS(G12C) [1]) does the source give for C=CC(=O)N1CCN(c2nc(OC[C@@H]3CC[C@H](CN4CCN(Cc5ccc(-n6c(O)nnc6-c6cc(C(C)C)c(O)cc6O)cc5)CC4)N3C)nc3c2CCN(c2cccc4cccc(Cl)c24)C3)C[C@@H]1CC#N [Compound 326, 2-[(2S)-4-[7-(8-chloronaphthalen-1-yl)-2-{[(2S,5R)-5-{[4-({4-[3-(2,4-dihydroxy-5-isopropylphenyl)-5-hydroxy-1,2,4-triazol-4-yl]-phenyl}methyl)piperazin-1-yl]methyl}-1-methylpyrrolidin-2-yl]methoxy}-5H,6H,8H-pyrido[3,4-d]pyrimidin-4-yl]-1-(prop-2-enoyl)piperazin-2-yl]acetonitrile] here?
Answer: The DC50 was 0.1 to 1 µM.

Question: And the IC50 (HSP90a protein)?
Answer: Its IC50 is under 0.1 µM.

Question: And the EC50 [2]?
Answer: The EC50 was 0.1 to 1 µM.

Question: And the IC50 (KRAS(G12C) [3])?
Answer: The IC50 was under 0.1 µM.

Question: How did the DC50 (KRAS(G12C) [1]) turn out when C=CC(=O)N1CCN(c2nc(OCCN3CCN(C(=O)C4CCN(Cc5ccc(-n6c(O)nnc6-c6cc(C(C)C)c(O)cc6O)cc5)CC4)CC3)nc3c2CCN(c2cccc4cccc(Cl)c24)C3)C[C@@H]1CC#N [Compound 192, (S)-2-(1-acryloyl-4-(7-(8-chloronaphthalen-1-yl)-2-(2-(4-(1-(4-(3-(2,4-dihydroxy-5-isopropylphenyl)-5-hydroxy-4H-1,2,4-triazol-4-yl)benzyl)piperidine-4-carbonyl)piperazin-1-yl)ethoxy)-5,6,7,8-tetrahydropyrido[3,4-d]pyrimidin-4-yl)piperazin-2-yl)acetonitrile, trifluoroacetic acid] was run?
Answer: Its DC50 is 0.1 to 1 µM.

Question: And the IC50 (HSP90a protein)?
Answer: Its IC50 is under 0.1 µM.

Question: And the EC50 [2]?
Answer: The EC50 was 0.1 to 1 µM.

Question: What about the IC50 (KRAS(G12C) [3]) of the same molecule?
Answer: Its IC50 is under 0.1 µM.

Question: What does the source list for C=C(F)C(=O)N1CCN(c2nc(OCCN3CCN(C(=O)C4CCN(Cc5ccc(-n6c(O)nnc6-c6cc(C(C)C)c(O)cc6O)cc5)CC4)CC3)nc3c2CCN(c2cccc4cccc(Cl)c24)C3)C[C@@H]1CC#N [Compound 224, (S)-2-(4-(7-(8-chloronaphthalen-1-yl)-2-(2-(4-(1-(4-(3-(2,4-dihydroxy-5-isopropylphenyl)-5-hydroxy-4H-1,2,4-triazol-4-yl)benzyl)piperidine-4-carbonyl)piperazin-1-yl)ethoxy)-5,6,7,8-tetrahydropyrido[3,4-d]pyrimidin-4-yl)-1-(2-fluoroacryloyl)piperazin-2-yl)acetonitrile]?
Answer: DC50 (KRAS(G12C) [1]): > 1 µM; IC50 (HSP90a protein): < 0.1 µM; EC50 [2]: 0.1 to 1 µM; IC50 (KRAS(G12C) [3]): > 1 µM

Question: What does the source list for C=CC(=O)N1CCN(c2nc(OC[C@@H]3C[C@H](N4CCC(C(=O)N5CCN(Cc6ccc(-n7c(O)nnc7-c7cc(CC)c(O)cc7O)cc6)CC5)CC4)CN3C)nc3c2CCN(c2cccc4cccc(Cl)c24)C3)C[C@@H]1CC#N [Compound 233, 2-[(2S)-4-[7-(8-chloronaphthalen-1-yl)-2-{[(2S,4S)-4-{4-[4-({4-[3-(5-ethyl-2,4-dihydroxyphenyl)-5-hydroxy-1,2,4-triazol-4-yl]phenyl}methyl)piperazine-1-carbonyl]piperidin-1-yl}-1-methylpyrrolidin-2-yl]methoxy}-5H,6H,8H-pyrido[3,4-d]pyrimidin-4-yl]-1-(prop-2-enoyl)piperazin-2-yl]acetonitrile]?
Answer: DC50 (KRAS(G12C) [1]): > 1 µM; IC50 (HSP90a protein): < 0.1 µM; EC50 [2]: > 1 µM; IC50 (KRAS(G12C) [3]): < 0.1 µM

Question: Which results are given for C=CC(=O)N1CCN(c2nc(OC[C@@H]3C[C@H](C(=O)N[C@@H]4CCCN(Cc5ccc(-n6c(O)nnc6-c6cc(C(C)C)c(O)cc6O)cc5)C4)CN3C)nc3c2CCN(c2cccc4cccc(Cl)c24)C3)C[C@@H]1CC#N [Compound 229, (3S,5S)-5-({[7-(8-chloronaphthalen-1-yl)-4-[(3S)-3-(cyanomethyl)-4-(prop-2-enoyl)piperazin-1-yl]-5H,6H,8H-pyrido[3,4-d]pyrimidin-2-yl]oxy}methyl)-N-[(3R)-1-({4-[3-(2,4-dihydroxy-5-isopropylphenyl)-5-hydroxy-1,2,4-triazol-4-yl]phenyl}methyl)piperidin-3-yl]-1-methylpyrrolidine-3-carboxamide]?
Answer: DC50 (KRAS(G12C) [1]): > 1 µM; IC50 (HSP90a protein): < 0.1 µM; EC50 [2]: > 1 µM; IC50 (KRAS(G12C) [3]): < 0.1 µM

Question: Which DC50 (KRAS(G12C) [1]) does the source give for C=CC(=O)N1CCN(c2nc(OC[C@@H]3C[C@H](N4CCC5(CCN(Cc6ccc(-n7c(O)nnc7-c7cc(C)c(O)cc7O)cc6)CC5)CC4)CN3C)nc3c2CCN(c2cccc4cccc(Cl)c24)C3)C[C@@H]1CC#N [Compound 228, 2-[(2S)-4-[7-(8-chloronaphthalen-1-yl)-2-{[(2S,4S)-4-[9-({4-[3-(2,4-Dihydroxy-5-methylphenyl)-5-hydroxy-1,2,4-triazol-4-yl]phenyl}methyl)-3,9-diazaspiro[5.5]undecan-3-yl]-1-methylpyrrolidin-2-yl]methoxy}-5H,6H,8H-pyrido[3,4-d]pyrimidin-4-yl]-1-(prop-2-enoyl)piperazin-2-yl]acetonitrile] here?
Answer: Its DC50 is over 1 µM.

Question: What about the IC50 (HSP90a protein) of the same molecule?
Answer: The IC50 was under 0.1 µM.

Question: And the EC50 [2]?
Answer: The EC50 was 0.1 to 1 µM.

Question: What about the IC50 (KRAS(G12C) [3]) of the same molecule?
Answer: The IC50 was under 0.1 µM.

Question: With C=CC(=O)N1CCN(c2nc(OC[C@@H]3C[C@H](N4CCC(C(=O)N5CCC6(CC5)CN(Cc5ccc(-n7c(O)nnc7-c7cc(C(C)C)c(O)cc7O)cc5)C6)CC4)CN3C)nc3c2CCN(c2cccc4cccc(Cl)c24)C3)C[C@@H]1CC#N [Compound 350, 2-[(2S)-4-[7-(8-chloronaphthalen-1-yl)-2-{[(2S,4S)-4-{4-[2-({4-[3-(2,4-dihydroxy-5-isopropylphenyl)-5-hydroxy-1,2,4-triazol-4-yl]phenyl}methyl)-2,7-diazaspiro [3.5]nonane-7-carbonyl]piperidin-1-yl}-1-methylpyrrolidin-2-yl]methoxy}-5H,6-H,8H-pyrido[3,4-d]pyrimidin-4-yl]-1-(prop-2-enoyl)piperazin-2-yl]acetonitrile] as the molecule, how does the DC50 (KRAS(G12C) [1]) read?
Answer: The DC50 was 0.1 to 1 µM.

Question: What about the IC50 (HSP90a protein) of the same molecule?
Answer: Its IC50 is under 0.1 µM.

Question: What about the EC50 [2] of the same molecule?
Answer: The EC50 was 0.1 to 1 µM.

Question: And the IC50 (KRAS(G12C) [3])?
Answer: Its IC50 is under 0.1 µM.
